Data as given in ChEMBL document CHEMBL1129561 (J Med Chem, 1996).

What was measured:
Glucocorticoid receptor = target: T1, Glucocorticoid receptor (Homo sapiens, UniProt P04150)
T1 sequence (P04150 whole entry): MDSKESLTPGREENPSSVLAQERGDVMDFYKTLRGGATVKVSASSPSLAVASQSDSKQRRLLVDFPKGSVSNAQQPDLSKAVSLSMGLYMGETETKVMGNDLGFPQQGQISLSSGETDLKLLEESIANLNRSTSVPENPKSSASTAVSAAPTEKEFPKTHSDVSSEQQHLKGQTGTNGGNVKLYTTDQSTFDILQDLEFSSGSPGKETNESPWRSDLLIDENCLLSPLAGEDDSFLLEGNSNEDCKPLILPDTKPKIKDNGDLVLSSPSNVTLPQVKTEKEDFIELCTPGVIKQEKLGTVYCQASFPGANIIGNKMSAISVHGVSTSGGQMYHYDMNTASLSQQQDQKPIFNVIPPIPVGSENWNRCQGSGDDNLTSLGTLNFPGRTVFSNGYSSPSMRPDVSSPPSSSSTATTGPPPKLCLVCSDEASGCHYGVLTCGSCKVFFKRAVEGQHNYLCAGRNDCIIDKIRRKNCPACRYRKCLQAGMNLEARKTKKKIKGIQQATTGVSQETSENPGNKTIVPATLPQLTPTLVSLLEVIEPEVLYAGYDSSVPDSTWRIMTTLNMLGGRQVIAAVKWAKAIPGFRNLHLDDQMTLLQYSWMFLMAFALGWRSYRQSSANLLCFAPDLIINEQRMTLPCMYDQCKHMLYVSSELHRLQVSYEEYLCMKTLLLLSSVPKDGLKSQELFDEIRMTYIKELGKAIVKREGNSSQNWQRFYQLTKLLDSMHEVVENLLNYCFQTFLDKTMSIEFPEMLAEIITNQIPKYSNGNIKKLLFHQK
Description: Inhibitory activity against human glucocorticoid receptor (hGR)

Estrogen receptor [1] = target: T2, Estrogen receptor (Homo sapiens, UniProt Q92731+P03372)
Description: Inhibitory activity against human estrogen receptor

Progesterone receptor [2] = target: T3, Progesterone receptor (Homo sapiens, UniProt P06401)
T3 sequence (P06401 whole entry): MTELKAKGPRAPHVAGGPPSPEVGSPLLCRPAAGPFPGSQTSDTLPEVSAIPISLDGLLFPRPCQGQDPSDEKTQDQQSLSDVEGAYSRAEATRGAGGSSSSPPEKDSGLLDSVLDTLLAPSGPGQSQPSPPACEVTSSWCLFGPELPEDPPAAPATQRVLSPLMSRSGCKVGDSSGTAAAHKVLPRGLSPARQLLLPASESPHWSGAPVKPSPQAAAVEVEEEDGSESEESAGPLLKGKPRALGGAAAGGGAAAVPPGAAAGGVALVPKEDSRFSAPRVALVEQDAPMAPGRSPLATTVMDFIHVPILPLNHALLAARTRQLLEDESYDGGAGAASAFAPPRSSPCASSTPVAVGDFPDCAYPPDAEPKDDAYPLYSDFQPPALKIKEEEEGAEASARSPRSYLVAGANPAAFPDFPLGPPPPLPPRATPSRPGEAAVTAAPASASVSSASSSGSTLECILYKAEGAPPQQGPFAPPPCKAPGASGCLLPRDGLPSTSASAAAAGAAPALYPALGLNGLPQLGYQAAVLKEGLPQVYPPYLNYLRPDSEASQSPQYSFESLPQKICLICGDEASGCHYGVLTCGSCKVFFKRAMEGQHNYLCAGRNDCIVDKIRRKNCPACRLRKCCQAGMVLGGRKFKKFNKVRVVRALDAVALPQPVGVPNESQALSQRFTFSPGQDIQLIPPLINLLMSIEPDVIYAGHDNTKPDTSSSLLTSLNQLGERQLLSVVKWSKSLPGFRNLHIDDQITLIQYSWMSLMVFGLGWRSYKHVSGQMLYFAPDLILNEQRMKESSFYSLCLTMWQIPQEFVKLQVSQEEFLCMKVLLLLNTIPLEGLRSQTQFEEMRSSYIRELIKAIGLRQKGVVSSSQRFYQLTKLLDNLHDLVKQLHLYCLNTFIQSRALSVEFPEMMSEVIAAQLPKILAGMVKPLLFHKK

Progesterone receptor [3] = target: T3, Progesterone receptor; remark: listed apart in the source
Androgen receptor = target: T4, Androgen receptor (Homo sapiens, UniProt P10275)
T4 sequence (P10275 whole entry): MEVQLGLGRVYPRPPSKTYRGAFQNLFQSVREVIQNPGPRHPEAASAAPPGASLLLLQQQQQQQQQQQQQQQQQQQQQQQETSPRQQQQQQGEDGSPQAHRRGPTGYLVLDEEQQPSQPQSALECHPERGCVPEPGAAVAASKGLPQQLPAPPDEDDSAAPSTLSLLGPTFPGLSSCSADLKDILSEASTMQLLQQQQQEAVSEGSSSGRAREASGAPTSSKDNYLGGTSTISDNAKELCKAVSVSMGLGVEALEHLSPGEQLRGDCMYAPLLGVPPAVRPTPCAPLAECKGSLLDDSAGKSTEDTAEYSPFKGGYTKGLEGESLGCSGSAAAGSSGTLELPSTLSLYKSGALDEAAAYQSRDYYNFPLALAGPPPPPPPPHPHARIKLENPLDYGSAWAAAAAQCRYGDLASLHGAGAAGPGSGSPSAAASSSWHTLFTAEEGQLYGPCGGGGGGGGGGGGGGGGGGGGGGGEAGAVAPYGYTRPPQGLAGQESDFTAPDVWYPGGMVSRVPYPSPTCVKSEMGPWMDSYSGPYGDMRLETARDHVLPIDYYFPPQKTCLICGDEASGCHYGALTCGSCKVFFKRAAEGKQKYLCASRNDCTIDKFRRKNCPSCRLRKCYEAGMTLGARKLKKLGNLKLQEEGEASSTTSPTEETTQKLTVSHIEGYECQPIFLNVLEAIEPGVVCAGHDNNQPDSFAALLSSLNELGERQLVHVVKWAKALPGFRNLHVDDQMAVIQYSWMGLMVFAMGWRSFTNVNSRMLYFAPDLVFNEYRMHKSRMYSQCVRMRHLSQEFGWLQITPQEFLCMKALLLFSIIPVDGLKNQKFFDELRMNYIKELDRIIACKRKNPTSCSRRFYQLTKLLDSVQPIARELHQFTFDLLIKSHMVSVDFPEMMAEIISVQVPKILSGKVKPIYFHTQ
Description: Binding affinity determined against human Androgen receptor

Progesterone receptor [4] = target: T3, Progesterone receptor; remark: listed apart in the source
Estrogen receptor [5] = target: T2, Estrogen receptor; remark: listed apart in the source
Description: Binding affinity for human estrogen receptor

[6] = target: T5, Progesterone receptor (Homo sapiens) (UniProt P06401); conditions: CV-1
T5 sequence (whole entry): T3 sequence (P06401 whole entry)

Compound `C=C1C=C(C)CC(C)(C)C1Cc1ccc([N+](=O)[O-])cc1` (stereo not drawn) has an IC50 (Glucocorticoid receptor) of over 10 µM, an IC50 (Estrogen receptor [1]) of over 10 µM and an IC50 (Progesterone receptor [2]) of 1.05 µM. For the same compound, the Ki (Progesterone receptor [3]) was 0.0535 µM, the Ki (Androgen receptor) was 6.3 µM and the IC50 (Progesterone receptor [4]) was 0.186 µM. For the same compound, the Ki (Estrogen receptor [5]) was over 10 µM and the Max inhibition [6] was 90%.
